Results taken from patent US20240124504A1, “AROMATIC HETEROCYCLIC COMPOUND, AND PHARMACEUTICAL COMPOSITION AND APPLICATION THEREOF” (GT APEIRON THERAPEUTICS LIMITED, priority 2020, published 2024).

Experiments:
[1] = target: CDK9/cyclinT1 complex (Homo sapiens, UniProt P50750); assay: In-vitro enzymatic inhibitory activity testing, CDK9 inhibition assay (Caliper EZ Reader II); type: biochemical; details: CDK9/cyclinT1 8 nM, 180 min at 27° C.
Outline: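 Phosphorylated and unphosphorylated fluorescent peptide were resolved by mobility-shift electrophoresis, with IC50 taken from a nonlinear regression of dose-response data. Reactions ran 180 min at 27 °C in MES buffer pH 6.5 with MgCl2, after 10 min enzyme–compound preincubation, using 8 nM CDK9/cyclinT1 and 5-FAM-CDK9tide.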

[2] = system: human breast cancer cells HCC70; assay: Cell biological activity detection (CyQuant, 72 hours), HCC70; type: cell-based; details: Homo sapiens, HCC70, 72 h, incubation for 72 hours
Outline: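 IC50 derived from CyQuant Direct nuclear staining (488 nm excitation) after 72 h compound exposure at 37 °C, 5% CO2. Compounds tested in 9 concentrations from 10 μM, 1:4 steps, 0.2% DMSO, on A2780 or HCC70 cells plated overnight at 2000/well in RPMI 1640 + 10% FBS.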

[3] = Caco-2 membrane permeability and efflux rate; type: in vitro ADME; details: human, Caco-2, Caco-2, 5 μM; for Papp B→A at 2 h, 5 μM: basal end to top end; for efflux ratio at 2 h, 5 μM: read-out: ER (efflux rate); for Papp A→B at 2 h, 5 μM: top end to basal end
Outline: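 Caco-2 monolayers after 14-18 days' culture; compound at 5 μM final in HBSS (10 mM HEPES, pH 7.4), apical-to-basal and basal-to-apical, 2 h at 37° C. LC/MS/MS gives Papp (10-6 cm/s) and efflux ratio; lucifer yellow checks monolayer integrity.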

Chain of CDK9/cyclinT1 complex (P50750 whole entry, species assumed): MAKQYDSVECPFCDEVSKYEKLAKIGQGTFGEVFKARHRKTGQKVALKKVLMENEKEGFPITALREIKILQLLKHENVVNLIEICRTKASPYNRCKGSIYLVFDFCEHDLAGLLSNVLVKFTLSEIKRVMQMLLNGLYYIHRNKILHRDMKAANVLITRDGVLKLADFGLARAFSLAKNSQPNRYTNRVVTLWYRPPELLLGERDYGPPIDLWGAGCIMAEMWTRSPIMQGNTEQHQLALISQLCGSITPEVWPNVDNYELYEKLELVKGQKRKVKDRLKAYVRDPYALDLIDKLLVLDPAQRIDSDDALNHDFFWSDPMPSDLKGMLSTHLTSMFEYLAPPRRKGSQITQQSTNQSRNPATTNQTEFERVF
Chain of CDK9/cyclinT1 complex (O60563 whole entry partner, species assumed): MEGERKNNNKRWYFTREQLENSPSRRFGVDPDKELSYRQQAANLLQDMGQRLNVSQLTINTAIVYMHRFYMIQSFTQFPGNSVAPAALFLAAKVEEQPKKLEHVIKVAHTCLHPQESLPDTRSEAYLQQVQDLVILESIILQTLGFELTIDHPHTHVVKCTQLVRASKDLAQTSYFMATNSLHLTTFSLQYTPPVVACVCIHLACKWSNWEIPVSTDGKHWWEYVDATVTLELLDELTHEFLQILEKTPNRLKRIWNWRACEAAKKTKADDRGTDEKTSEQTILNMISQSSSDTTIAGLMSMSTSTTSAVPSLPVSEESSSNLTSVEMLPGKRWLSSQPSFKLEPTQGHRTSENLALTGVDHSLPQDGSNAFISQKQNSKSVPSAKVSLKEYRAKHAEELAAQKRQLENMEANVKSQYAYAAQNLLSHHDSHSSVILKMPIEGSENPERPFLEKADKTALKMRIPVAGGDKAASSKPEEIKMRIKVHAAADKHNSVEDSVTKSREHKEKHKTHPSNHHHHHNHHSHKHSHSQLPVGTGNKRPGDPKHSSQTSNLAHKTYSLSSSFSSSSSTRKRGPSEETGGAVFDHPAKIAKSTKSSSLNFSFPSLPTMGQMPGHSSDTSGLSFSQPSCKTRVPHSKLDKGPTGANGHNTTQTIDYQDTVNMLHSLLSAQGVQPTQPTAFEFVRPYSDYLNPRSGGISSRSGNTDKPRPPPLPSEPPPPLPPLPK

IC50 [1] | Papp B→A at 2 h, 5 μM [3] | efflux ratio at 2 h, 5 μM [3] | Papp A→B at 2 h, 5 μM [3] | Compound | IC50 [2]
> 50000 nM | 17.1 ×10⁻⁶ cm/s | 2.14 | 7.99 ×10⁻⁶ cm/s | CP(C)(=O)c1cccc2c(-c3nc(NC4(CO)CCC4)ncc3C(F)(F)F)c[nH]c12 [Compound 168, (3-(2-((1-(hydroxymethyl)cyclobutyl)amino)-5-(trifluoromethyl)pyrimidin-4-yl)-1H-indole-7-yl)dimethylphosphine oxide] | 20 to 200 nM
5000 to 50000 nM | 34.8 ×10⁻⁶ cm/s | 17.1 | 2.03 ×10⁻⁶ cm/s | CP(C)(=O)c1cccc2c(-c3nc(NC45CC(O)(C4)C5)ncc3C(F)(F)F)c[nH]c12 [Compound 174, (3-(2-((3-hydroxybicyclo[1.1.1]pentan-1-yl)amino)-5-(trifluoromethyl)pyrimidin-4-yl)-1H-indole-7-yl)dimethylphosphine oxide] | < 20 nM
> 50000 nM | 33.5 ×10⁻⁶ cm/s | 65.9 | 0.51 ×10⁻⁶ cm/s | C[C@@H](CO)Nc1ncc(C#N)c(-c2c[nH]c3c(P(C)(C)=O)cccc23)n1 [Compound 179, (S)-4-(7-(dimethylphosphoryl)-1H-indole-3-yl)-2-((1-hydroxypropan-2-yl)amino)pyrimidine-5-carbonitrile] | 20 to 200 nM
> 50000 nM | 24.4 ×10⁻⁶ cm/s | 2.36 | 10.3 ×10⁻⁶ cm/s | C[C@@H](CO)Nc1ncc(C(F)(F)F)c(-c2c[nH]c3c(P(C)(C)=O)c(F)ccc23)n1 [Compound 195] | < 20 nM
